Assays:
[1] = biological target: T1, human GLP-1R (Homo sapiens, UniProt P43220); assay: cAMP generation in intact HEK-GLP-1R cells; format: cell-based
T1 construct: expressed in transfected cells; vector pcDNA5/FRT
Description: HEK-Flp-In cells with stable recombinant expression of the human GLP-1R (HEK-GLP-1R) were cultured in DMEM with high glucose supplemented with 10% FBS, 100 µg/ml streptomycin and 100 units/ml penicillin sulphate. These cells were originally generated by transfection of HEK-Flp-In cells (Invitrogen: Paisley, U.K.) with pcDNA5/FRT containing the human GLP-1R. […] INS-1E cells were kindly provided by Prof. C.B. Wollheim of the University of Geneva, Switzerland [19]. These cells were used between passages 65–90 and cultured in RPMI media containing 11.1 mM glucose, 5% heat-inactivated FBS, 100 µg/ml streptomycin, 100 units/ml penicillin sulphate, 100 units/ml neomycin, 50 µM β-mercaptoethanol, 10 mM HEPES and 1 mM sodium pyruvate. All cells were cultured at 37°C in a 5% CO2 humidified atmosphere and passaged at confluence.
Confluent monolayers of HEK-GLP-1R cells cultured in 24-well plates pre-coated with poly-D-lysine (0.1% w/v) where washed twice with 0.5 ml Krebs-HEPES buffer (KHB, composition: 10 mM HEPES; 4.2 mM NaHCO3; 11.7 mM D-glucose; 1.18 mM MgSO4·7H2O; 1.18 mM KH2PO4; 4.69 mM KCl; 118 mM NaCl; 1.3 mM CaCl2·2H2O; pH 7.4) containing 0.1% (w/v) BSA (KHB-BSA) before incubation (10 min, 37°C) in 360 µl KHB-BSA containing 500 µM isobutylmethylxanthine (IBMX). Ligands or vehicle control (40 µl) were added and reactions terminated after the appropriate times by replacement of the aqueous phase with ice-cold 0.5 M trichloroacetic acid. INS-1E cells grown to confluence in 24-well plates were treated similarly with the exception that after washing in KHB, cells were incubated in 200 µl KHB-BSA containing 1.4 mM glucose without IBMX for 2 h followed by challenge with ligands (or vehicle) for 15 min at 37°C in 400 µl KHB-BSA, in the presence of 10 mM glucose and 500 µM IBMX. Reactions were terminated as above.
(§1) The cAMP was extracted from either intact cell or membrane preparations using a method identical to that for extraction of Ins(1,4,5)P3 [22]. Levels of cAMP were then determined by a competitive radioreceptor assay using binding protein purified from bovine adrenal glands and related to cellular protein assessed by Bradford assay.
(§2) Concentration-response curves were fitted using GraphPad Prism (GraphPad Software Inc., CA) using a standard four parameter logistic equation. All data are representative of n≥3 or are presented as mean+/±s.e.m., where n = 3 unless otherwise stated. Statistical analysis was by oneway ANOVA and where P<0.05, followed by Bonferroni's or Dunnett's multiple range test as indicated. Alternatively analysis was performed by Student's t-test. Where potency estimates are given these are pEC50 values (−log10 of the molar concentration giving 50% of the maximal response).

[2] = biological target: T1, human GLP-1R; assay: cAMP generation by membranes from HEK-GLP-1R cells; format: biochemical; details: 5 min, 30°C, IBMX
Description: as §1, §2

[3] = biological target: T1, human GLP-1R; details: earlier studies; interpretation may be compromised by adverse effects of compound 2; ref [7]; cited from earlier work
Text: Given its physiological roles, the GLP-1R is targeted for treatment of type 2 diabetes. […] Such proteolysis is thought to remove biological activity.

[4] = tested on: GLP-1R; details: ref [7]; cited from earlier work
[5] = biological target: T1, human GLP-1R; assay: ERK activation (phospho-ERK Western blot) in HEK-GLP-1R cells; format: cell-based; details: compound 2 10 µM, 5 min
Description: as §2

[6] = tested on: adenylyl cyclase; assay: cAMP generation by direct activation of adenylyl cyclase with forskolin; format: biochemical; details: data not shown
Description: Generation of cAMP by cell membranes was determined based on previously published methods, [21]. Membranes were prepared from confluent cell monolayers grown in 80 cm^2 flasks. Cells were washed with 5 ml HBS (154 mM NaCl, 10 mM HEPES, pH 7.4, 37°C), detached using harvesting buffer (154 mM NaCl, 10 mM HEPES, 5.4 mM EDTA, pH 7.4, 37°C) and collected by centrifugation (200 g, 2 min, 4°C). The cell pellet was resuspended in 1 ml of homogenization buffer (10 mM HEPES, 10 mM EDTA, pH 7.4) and sonicated (Sonifier Ultrasonic Cell Disruptor; Branson, CT) at 30% of the maximal amplitude for 3×5 s at ∼30 s intervals before centrifugation (30,000 g, 4°C, 10 min). After removal of the supernatant, pellets were collected in resuspension buffer (10 mM HEPES, 0.1 mM EDTA, pH 7.4), protein concentration adjusted to 1 mg/ml and stored in aliquots at −80°C until assay. Generation of cAMP was determined in 100 µl containing: 10 mM HEPES, 12 mM MgCl2, 60 mM NaCl, 1.2 mM EDTA, 1.2% w/v BSA, 5% DMSO, 480 µM ATP, 2 mM IBMX, 10 µM GTP, 20 µg membrane and ligands as indicated. […]
as §1

T1 sequence (P43220 24-463): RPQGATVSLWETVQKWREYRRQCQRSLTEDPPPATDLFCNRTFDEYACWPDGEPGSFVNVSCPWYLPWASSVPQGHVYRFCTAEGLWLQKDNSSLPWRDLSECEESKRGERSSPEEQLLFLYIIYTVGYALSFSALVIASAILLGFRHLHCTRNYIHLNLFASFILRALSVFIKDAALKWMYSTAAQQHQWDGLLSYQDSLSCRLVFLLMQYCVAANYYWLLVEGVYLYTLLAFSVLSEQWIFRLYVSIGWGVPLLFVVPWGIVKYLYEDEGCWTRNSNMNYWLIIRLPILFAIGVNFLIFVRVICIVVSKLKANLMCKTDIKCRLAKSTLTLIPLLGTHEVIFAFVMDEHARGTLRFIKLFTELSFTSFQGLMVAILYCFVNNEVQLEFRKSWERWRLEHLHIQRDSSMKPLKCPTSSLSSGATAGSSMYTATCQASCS

CC(C)(C)Nc1nc2cc(Cl)c(Cl)cc2nc1S(C)(=O)=O [compound 2, 6,7-dichloro-2-methylsulfonyl-3-N-tert-butylaminoquinoxaline]
time of peak cAMP response ([1]; 1 µM compound 2, IBMX): 30 min | cAMP response over time (in words) ([1]; 1 µM, over 60 min, IBMX, 5% DMSO, n = 3): evoked a more robust increase, which peaked at 30 min and then declined | cAMP response (in words) ([1]; concentration-response, 15 min, IBMX): at >3 µM caused progressively lower cAMP responses, resulting in a bell-shaped concentration-response curve | maximal response (Emax), cAMP ([1]; no pretreatment (buffer 10 min), 15 min challenge, IBMX, pH 7.4, 37°C, mean±s.e.m., n = 3): 1908±91 pmol/mg protein | pEC50, cAMP ([1]; no pretreatment (buffer 10 min), 15 min challenge, IBMX, compound 2: rising phase of bell-shaped curve, mean±s.e.m., n = 3): 5.94±0.04 | Emax as % of the GLP-1 7–36 amide response, cAMP ([1]; no pretreatment, 15 min challenge, IBMX): 72% | pEC50, cAMP, after preincubation with GLP-1 9–36 amide ([1]; preincubated 10 min with 1 µM GLP-1 9–36 amide, 15 min challenge, IBMX, compound 2: rising phase, mean±s.e.m., n = 3): 6.55±0.07 | cAMP response in membranes (in words) [2]: enhanced the ability of GLP-1 9–36 amide to increase cAMP | cAMP level (membranes) ([2]; compound 2 alone, 3 µM, mean±s.e.m., n = 3): 2623±269 pmol/mg protein | effect on GLP-1 7–36 amide potency (cAMP) [3]: actually reduced GLP-1 7–36 amide potency | effect on GLP-1 7–36 amide-mediated internalization of the GLP-1R [4]: can inhibit GLP-1 7–36 amide-mediated internalization of the GLP-1R | ERK activation [5]: response equivalent to the maximally effective concentration of GLP-1 7–36 amide (10 nM) | effect on forskolin-stimulated cAMP generation [6]: inability of compound 2 to influence cAMP generation

— PMC3477139 (PLoS ONE, 2012)
